Measurements taken from patent US20140066431A1, “Benzoxazepines as Inhibitors of PI3K/mTOR and Methods of Their Use and Manufacture” (Exelixis, Inc., priority 2010, published 2014).

What was measured:
[1] = biological target: PI3Kα (Homo sapiens, UniProt P42336); assay: PI3K biochemical assay (ATP consumption, luciferase-luciferin); settings: 1.5 nM enzyme, 1 μM ATP, 10 μM PIP2
Method: PI3Kα activity is measured as the percent of ATP consumed following the kinase reaction using luciferase-luciferin-coupled chemiluminescence. Reactions were conducted in 384-well white, medium binding microtiter plates (Greiner). Kinase reactions were initiated by combining test compounds, ATP, substrate (PIP2), and kinase in a 20 μL volume in a buffer solution. The standard PI3Kalpha assay buffer is composed 50 mM Tris, pH 7.5, 1 mM EGTA, 10 mM MgCl2, 1 mM DTT and 0.03% CHAPS. The standard assay concentrations for enzyme, ATP, and substrate are 1.5 nM, 1 μM, and 10 μM, respectively. The reaction mixture was incubated at ambient temperature for approximately 2 h. Following the kinase reaction, a 10 μL aliquot of luciferase-luciferin mix (Promega Kinase-Glo) was added and the chemiluminescence signal measured using a Victor2 plate reader (Perkin Elmer). Total ATP consumption was limited to 40-60% and IC50 values of control compounds correlate well with literature references. Substituting PI3Kα with PI3Kβ, PI3Kγ, or PI3Kδ, the inhibitory activity of the compounds for the other isoforms of I3K were measured.

[2] = biological target: mTOR/GbL/Raptor (mTORC1) (Homo sapiens, UniProt P42345); assay: mTOR/GbL/Raptor (mTORC1) ELISA assay; format: biochemical; settings: 0.2 nM mTORC1, 10 μM ATP, 50 nM 4E-BP1
Method: The measurement of mTORC1 enzyme activity was performed in an ELISA assay format following the phosphorylation of 4E-BP1 protein. All experiments were performed in the 384-well format. Generally, 0.5 μL DMSO containing varying concentrations of the test compound was mixed with 15 μL enzyme solution. Kinase reactions were initiated with the addition of 15 μL of substrates-containing solution. The assay conditions were as follows; 0.2 nM mTORC1, 10 μM ATP and 50 nM NHis-tagged 4E-BP1 in 20 mM Hepes, pH 7.2, 1 mM DTT, 50 mM NaCl, 10 mM MnCl2, 0.02 mg/mL BSA, 0.01% CHAPS, 50 mM β-glycerophosphate. Following an incubation of 120 minutes at ambient temperature, 20 μL of the reaction volume was transferred to a Ni-Chelate-coated 384-well plate. The binding step of the 4E-BP1 protein proceeded for 60 minutes, followed by washing 4 times each with 50 μL of Tris-buffered saline solution (TBS). Anti-phospho-4E-BP1 rabbit-IgG (20 μL, 1:5000) in 5% BSA-TBST (0.2% Tween-20 in TBS) was added and further incubated for 60 minutes. Incubation with a secondary HRP-tagged anti-IgG was similarly performed after washing off the primary antibody (4 washes of 50 μL). Following the final wash step with TBST, 20 μL of SuperSignal ELISA Femto (Pierce Biotechnology) was added and the luminescence measured using an EnVision plate reader.

Chain of PI3Kα (P42336 whole entry): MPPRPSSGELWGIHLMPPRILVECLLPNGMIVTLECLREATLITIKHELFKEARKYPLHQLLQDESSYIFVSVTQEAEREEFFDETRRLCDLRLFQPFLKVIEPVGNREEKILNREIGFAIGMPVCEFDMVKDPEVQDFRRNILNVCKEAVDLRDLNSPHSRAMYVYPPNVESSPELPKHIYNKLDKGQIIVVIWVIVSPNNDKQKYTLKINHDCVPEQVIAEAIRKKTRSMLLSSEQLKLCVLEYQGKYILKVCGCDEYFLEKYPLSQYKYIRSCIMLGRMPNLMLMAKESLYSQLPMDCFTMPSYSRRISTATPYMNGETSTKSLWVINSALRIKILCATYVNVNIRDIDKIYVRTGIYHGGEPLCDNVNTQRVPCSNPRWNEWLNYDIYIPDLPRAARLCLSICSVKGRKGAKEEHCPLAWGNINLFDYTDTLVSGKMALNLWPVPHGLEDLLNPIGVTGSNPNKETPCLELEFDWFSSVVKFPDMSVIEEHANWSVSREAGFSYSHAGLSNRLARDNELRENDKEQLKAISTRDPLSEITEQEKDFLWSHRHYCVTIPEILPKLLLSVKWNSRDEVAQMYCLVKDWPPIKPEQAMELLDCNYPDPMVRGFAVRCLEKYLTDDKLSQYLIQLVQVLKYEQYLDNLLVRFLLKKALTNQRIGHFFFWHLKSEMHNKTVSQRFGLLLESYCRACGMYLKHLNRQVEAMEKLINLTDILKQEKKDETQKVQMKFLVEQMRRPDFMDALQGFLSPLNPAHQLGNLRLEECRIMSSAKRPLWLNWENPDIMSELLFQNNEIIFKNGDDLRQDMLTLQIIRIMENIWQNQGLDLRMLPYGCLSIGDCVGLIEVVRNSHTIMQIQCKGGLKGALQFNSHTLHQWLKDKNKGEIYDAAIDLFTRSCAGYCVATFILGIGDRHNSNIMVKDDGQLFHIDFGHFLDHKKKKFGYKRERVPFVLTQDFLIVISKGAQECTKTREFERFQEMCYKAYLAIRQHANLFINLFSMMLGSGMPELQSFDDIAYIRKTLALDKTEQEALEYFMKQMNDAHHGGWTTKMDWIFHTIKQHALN
Chain of PI3Kα (P27986 whole entry partner): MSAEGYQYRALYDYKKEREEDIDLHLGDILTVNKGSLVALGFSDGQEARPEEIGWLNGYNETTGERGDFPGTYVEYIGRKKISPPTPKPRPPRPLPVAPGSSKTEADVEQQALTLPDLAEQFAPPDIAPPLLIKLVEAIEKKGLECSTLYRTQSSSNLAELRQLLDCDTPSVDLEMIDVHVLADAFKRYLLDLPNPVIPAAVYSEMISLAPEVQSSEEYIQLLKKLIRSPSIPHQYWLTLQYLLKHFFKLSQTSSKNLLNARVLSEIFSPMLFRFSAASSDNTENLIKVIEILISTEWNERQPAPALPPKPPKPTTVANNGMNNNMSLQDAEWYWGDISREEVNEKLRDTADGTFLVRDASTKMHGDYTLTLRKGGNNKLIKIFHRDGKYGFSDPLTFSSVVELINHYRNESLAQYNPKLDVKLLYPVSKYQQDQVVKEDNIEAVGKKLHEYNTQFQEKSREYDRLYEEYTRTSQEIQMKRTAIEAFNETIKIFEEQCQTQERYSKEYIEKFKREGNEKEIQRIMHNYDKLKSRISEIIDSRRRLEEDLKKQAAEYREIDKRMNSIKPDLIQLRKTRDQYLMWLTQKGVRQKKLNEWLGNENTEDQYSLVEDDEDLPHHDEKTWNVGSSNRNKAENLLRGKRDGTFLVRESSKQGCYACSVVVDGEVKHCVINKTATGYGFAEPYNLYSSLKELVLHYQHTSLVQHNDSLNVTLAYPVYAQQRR

SMILES | IC50 (PI3Kα biochemical assay) [1] | IC50 (mTORC1 ELISA) [2]
Cc1nc2ccc(-c3ccc4c(c3)CN(C(=O)N3CCCCC3Cc3ccccc3)CCO4)cc2[nH]1 (stereo not shown) [compound 104, 7-(2-methyl-1H-benzimidazol-6-yl)-4-{[2-(phenylmethyl)piperidin-1-yl]carbonyl}-2,3,4,5-tetrahydro-1,4-benzoxazepine] | not active | –
CC(=O)c1ccc(N2CCN(C(=O)N3CCOc4ccc(-c5ccc6nc(C)[nH]c6c5)cc4C3)CC2)cc1 [compound 169, 1-[4-(4-{[7-(2-methyl-1H-benzimidazol-6-yl)-2,3-dihydro-1,4-benzoxazepin-4(5H)-yl]carbonyl}piperazin-1-yl)phenyl]ethanone] | – | not active
CC1CCN(C(=O)N2CCOc3ccc(-c4cnc(N)cn4)cc3C2)CC1 [compound 4, 5-{4-[(4-methylpiperidin-1-yl)carbonyl]-2,3,4,5-tetrahydro-1,4-benzoxazepin-7-yl}pyrazin-2-amine] | not active | –
CC1CCN(C(=O)N2CCOc3ccc(-c4ccc(N)nn4)cc3C2)CC1 [compound 1, 6-{4-[(4-methylpiperidin-1-yl)carbonyl]-2,3,4,5-tetrahydro-1,4-benzoxazepin-7-yl}pyridazin-3-amine] | not active | –
Cc1nc2cc(-c3ccc4c(c3)CN(C(=O)N3CC[C@@](C)(O)C[C@@H]3c3ccccc3)CCO4)ccc2[nH]1 (racemic) [compound 133, (±)-(2R,4R)-4-methyl-1-{[7-(2-methyl-1H-benzimidazol-5-yl)-2,3-dihydro-1,4-benzoxazepin-4(5H)-yl]carbonyl}-2-phenylpiperidin-4-ol] | not active | –
CC1CCN(C(=O)N2CCOc3ccc(-c4cc(NCc5ccccc5)[nH]n4)cc3C2)CC1 [compound 9, 3-{4-[(4-methylpiperidin-1-yl)carbonyl]-2,3,4,5-tetrahydro-1,4-benzoxazepin-7-yl}-N-(phenylmethyl)-1H-pyrazol-5-amine] | – | not active
CCC1CC2(CCN(C(=O)N3CCOc4ccc(-c5ccc6nc(C)[nH]c6c5)cc4C3)CC2)CC(=O)N1 (stereo not shown) [compound 155, 4-ethyl-9-{[7-(2-methyl-1H-benzimidazol-6-yl)-2,3-dihydro-1,4-benzoxazepin-4(5H)-yl]carbonyl}-3,9-diazaspiro[5.5]undecan-2-one] | not active | –
Cc1nc2ccc(-c3ccc4c(c3)CN(C(=O)N3CCCC[C@H]3c3ccccc3)CCO4)cc2[nH]1 [compound 65, 7-(2-methyl-1H-benzimidazol-6-yl)-4-{[(2S)-2-phenylpiperidin-1-yl]carbonyl}-2,3,4,5-tetrahydro-1,4-benzoxazepine] | not active | –
Cc1nc2ccc(-c3ccc4c(c3)CN(C(=O)NC3[C@H]5C[C@@H]6C[C@@H](C[C@H]3C6)C5)CCO4)cc2[nH]1 (stereo partly drawn) [compound 149, 7-(2-methyl-1H-benzimidazol-6-yl)-N-[(1r,3r,5R,7R)-tricyclo[3.3.1.1~3,7~]dec-2-yl]-2,3-dihydro-1,4-benzoxazepine-4(5H)-carboxamide] | not active | –
Cc1nc2ccc(-c3ccc4c(c3)CN(C(=O)N3CCN(C)CC3c3ccccc3)CCO4)cc2[nH]1 (stereo not shown) [compound 144, 7-(2-methyl-1H-benzimidazol-6-yl)-4-[(4-methyl-2-phenylpiperazin-1-yl)carbonyl]-2,3,4,5-tetrahydro-1,4-benzoxazephin] | – | not active
Cc1nc2ccc(-c3ccc4c(c3)CN(C(=O)N3[C@@H]5CC[C@H]3C[C@@H](CO)C5)CCO4)cc2[nH]1 [compound 112, (8-{[7-(2-methyl-1H-benzimidazol-6-yl)-2,3-dihydro-1,4-benzoxazepin-4(5H)-yl]carbonyl}-8-azabicyclo[3.2.1]oct-3-(endo)-yl)methanol] | – | not active
CCOC(=O)CN(Cc1ccccc1)C(=O)N1CCOc2ccc(-c3ccc4nc(C)[nH]c4c3)cc2C1 [compound 151, ethyl N-{[7-[2-methyl-1H-benzimidazol-6-yl)-2,3-dihydro-1,4-benzoxazepin-4(5H)-yl]carbonyl}-N-(phenylmethyl)glycinate] | – | not active
Cc1nc2ccc(-c3ccc4c(c3)CN(C(=O)N3CC[C@@H](O)C3)CCO4)cc2[nH]1 [compound 78, (3R)-1-{[7-(2-methyl-1H-benzimidazol-6-yl)-2,3-dihydro-1,4-benzoxazepin-4(5H)-yl]carbonyl}pyrrolidin-3-ol] | – | not active
Cc1nc2ccc(-c3ccc4c(c3)CN(C(=O)N3CCCCC3c3cc(C(F)(F)F)cc(C(F)(F)F)c3)CCO4)cc2[nH]1 (stereo not shown) [compound 115, 4-({2-[3,5-bis(trifluoromethyl)phenyl]piperidin-1-yl}carbonyl)-7-(2-methyl-1H-benzimidazol-6-yl)-2,3,4,5-tetrahydro-1,4-benzoxazepine] | – | not active
Cc1nc2ccc(-c3ccc4c(c3)CN(C(=O)N3[C@@H]5CC[C@H]3C[C@@H](N)C5)CCO4)cc2[nH]1 [compound 77, 8-{[7-(2-methyl-1H-benzimidazol-6-yl)-2,3-dihydro-1,4-benzoxazepin-4(5H)-yl]carbonyl}-8-azabicyclo[3.2.1]octan-3-(endo)-amine] | not active | –
Cc1nc2ccc(-c3ccc4c(c3)CN(C(=O)N3CCC(O)(c5ccc(C(F)(F)F)cc5)CC3)CCO4)cc2[nH]1 [compound 141, 1-{[7-(2-methyl-1H-benzimidazol-6-yl)-2,3-dihydro-1,4-benzoxazepin-4(5H)-yl]carbonyl}-4-[4-(trifluoromethyl)phenyl]piperidin-4-ol] | not active | –
Nc1cnc(-c2ccc3c(c2)CN(C(=O)N2CCC(C(F)(F)F)CC2)CCO3)cn1 [compound 6, 5-(4-{[4-(trifluoromethyl)piperidin-1-yl]carbonyl}-2,3,4,5-tetrahydro-1,4-benzoxazepin-7-yl)pyrazin-2-amine] | not active | –
Cc1nc2ccc(-c3ccc4c(c3)CN(C(=O)N3CCC(Cc5ccccc5)CC3)CCO4)cc2[nH]1 [compound 171] | not active | –
CCCCN(Cc1ccccc1)C(=O)N1CCOc2ccc(-c3ccc4nc(C)[nH]c4c3)cc2C1 [compound 173, N-butyl-7-(2-methyl-1H-benzimidazol-6-yl)-N-(phenylmethyl)-2,3-dihydro-1,4-benzoxazepine-4(5H)-carboxamide] | not active | –
Cc1nc2ccc(-c3ccc4c(c3)CN(C(=O)N3CCCCC3c3ccc(F)cc3C)CCO4)cc2[nH]1 (stereo not shown) [compound 117, 4-{[2-(4-fluoro-2-methylphenyl)piperidin-1-yl]carbonyl}-7-(2-methyl-1H-benzimidazol-6-yl)-2,3,4,5-tetrahydro-1,4-benzoxazepine] | not active | –
CC1CCN(C(=O)N2CCOc3ccc(-c4cc(N)[nH]n4)cc3C2)CC1 [compound 10, 3-{4-[(4-methylpiperidin-1-yl)carbonyl]-2,3,4,5-tetrahydro-1,4-benzoxazepin-7-yl}-1H-pyrazol-5-amine] | not active | –
Cc1nc2ccc(-c3ccc4c(c3)CN(C(=O)N3CCN(C)C(=O)C3)CCO4)cc2[nH]1 [compound 146, 1-methyl-4-{[7-(2-methyl-1H-benzimidazol-6-yl)-2,3-dihydro-1,4-benzoxazepin-4(5H)-yl]carbonyl}piperazin-2-one] | not active | –
Cc1nc2ccc(-c3ccc4c(c3)CN(C(=O)N3CCN(Cc5c(F)cccc5Cl)CC3)CCO4)cc2[nH]1 [compound 152, 4-({4-[(2-chloro-6-fluoropheny)methyl]piperazin-1-yl}carbonyl)-7-(2-methyl-1H-benzimidazol-6-yl)-2,3,4,5-tetrahydro-1,4-benzoxazepine] | not active | –
Cc1nc2ccc(-c3ccc4c(c3)CN(C(=O)N3CCN(c5ccccc5F)CC3)CCO4)cc2[nH]1 [compound 165, 4-{[4-(2-fluorophenyl)piperazin-1-yl]carbonyl}-7-(2-methyl-1H-benzimidazol-6-yl)-2,3,4,5-tetrahydro-1,4-benzoxazepine] | not active | –
Cc1nc2ccc(-c3ccc4c(c3)CN(C(=O)N3CCCCC3c3ccccc3C)CCO4)cc2[nH]1 (stereo not shown) [compound 126, 7-(2-methyl-1H-benzimidazol-6-yl)-4-{[2-(2-methylphenyl)piperidin-1-yl]carbonyl}-2,3,4,5-tetrahydro-1,4-benzoxazepine] | not active | –
